In US7763426B2, “Probes and methods for detection of Escheridia coli and antibiotic resistance” (priority 2004, dated 2010):
{Fluorescein} = fluorescein label (binding site for anti-fluorescein Fab-HRP); {Biotin} = biotin (capture probe anchor)

Tested on: bacterial 16S rRNA
Test: Species specificity of short probe pairs, 16 sensor array at ambient temperature (Example 5)
Format: binding
Conditions: for Species detected: ambient temperature hybridization; for Species not detected: * cross-reactivity at a level significantly less than with the target species

Substance | Species detected | Species not detected (ambient temperature) | cross-reactivity with P. mirabilis 16S (ambient temperature)
EF187C (20 mer)/EF167D (20 mer): Enterococcus spp. probe pair, SEQ ID NO: 52 and 53 (DNA 1 ACCGCGGGTCCATCCATCAG; DNA 2 CGACACCCGAAAGCGCCTTT; DNA 1: 5' {Biotin}, sugars by position and backbone not given here; DNA 2: 3' {Fluorescein}, sugars by position and backbone not given here; listed as Enterococcus sp.) | Ef | Ea, Ec, Kp, Pa, Pm | 
PA122C (15 mer)/PA107D (15 mer): Pseudomonas aeruginosa probe pair, SEQ ID NO: 50 and 51 (DNA 1 CCCACTTTCTCCCTC; DNA 2 AGGACGTATGCGGTA; DNA 1: 5' {Biotin}, sugars by position and backbone not given here; DNA 2: 3' {Fluorescein}, sugars by position and backbone not given here; listed as Pseudomonas aeruginosa) | Pa | Ea, Ec, Ef, Kp, Pm* | Weak cross-reactivity
KP436C (11 mer)/KP425D (11 mer): Klebsiella pneumoniae probe pair, SEQ ID NO: 48 and 49 (DNA 1 CTYAHCGCCTT; DNA 2 CCTCCCCGCTG; DNA 1: 5' {Biotin}, sugars by position, backbone and the base at N not given here; DNA 2: 3' {Fluorescein}, sugars by position and backbone not given here; listed as Klebsiella pneumoniae) | Kp | Ea, Ec, Ef, Pa, Pm | 
PM197C (21 mer)/PM176D (21 mer): Proteus mirabilis probe pair, SEQ ID NO: 46 and 47 (DNA 1 CATCCGATAGTGCAAGGTCCG; DNA 2 AAGAGCCCCTGCTTTGGTCCG; DNA 1: 5' {Biotin}, sugars by position and backbone not given here; DNA 2: 3' {Fluorescein}, sugars by position and backbone not given here; listed as Proteus mirabilis) | Pm | Ea, Ec, Ef, Kp, Pa | 
EB1275C (23 mer)/EB1252C (23 mer): Enterobacteriaceae probe pair, SEQ ID NO: 54 and 55 (DNA 1 ACTTTATGAGGTCCGCTTGCTCT; DNA 2 CGCGAGGTCGCCTTCCTTTGTAT; DNA 1: DNA, 5' {Biotin}, backbone and methylation of C not given here; DNA 2: DNA, 3' {Fluorescein}, backbone and methylation of C not given here; listed as Enterobacter sp.) | Ec, Kp, Pm, Ea | Pa, Ef | 
